Where “and” joins values, the source holds several entries; their conditions need not be identical. Equal entries are not always repeated. Square brackets hold non-standard residues; d marks the D form. Peptide text beside a SMILES is read from it. Ava = NCCCCC(=O)O
Tests used:
Type in all cases: cell-based
HIV-1 NDK = test: HIV-1 infection of C8166 cells (syncytia formation, p24 ELISA) with HIV-1 NDK; parameters: key to syncitia formed, Day 4 / syncitia formed, Day 5 / syncitia formed, Day 6 / syncitia formed, Day 7: ++, +, (+), (+)− and − represent decreasing numbers of syncitia formed; ++, +, (+), (+)− and − represent decreasing numbers of syncitia formed; ++, +, (+), (+)− and − represent decreasing numbers of syncitia formed; ++, +, (+), (+)− and − represent decreasing numbers of syncitia formed; ++, +, (+), (+)− and − represent decreasing numbers of syncitia formed; conditions: for P 24: P 24 after Day 7
How it was run: (§1)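 Infection was read out as syncytia and as cell-free p24 in supernatants (ELISA) from C8166 cells that received HIV-1 (1000 TCID50/ml, 1 h, 37 °C) after a 1 h peptide pretreatment. Peptide stayed on before, during and after adsorption. Toxicity was checked by daily trypan-blue counts.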

HIV-1 NL 4-3 [1] = test: HIV-1 infection of C8166 cells (syncytia formation, p24 ELISA) with HIV-1 NL 4-3; conditions: for Day 7 syncitia formed / P 24: Table 6; for P 24: Day 7
How it was run: as §1

HIV-1 NL 4-3 [2] = test: as above; parameters: key: ++, +, (+), (+)− and − represent decreasing numbers of syncitia formed; ++, +, (+), (+)− and − represent decreasing numbers of syncitia formed; ++, +, (+), (+)− and − represent decreasing numbers of syncitia formed; ++, +, (+), (+)− and − represent decreasing numbers of syncitia formed; ++, +, (+), (+)− and − represent decreasing numbers of syncitia formed; conditions: Table 6
How it was run: as §1

[3] = C8166 cells, HIV-1 subtype B NL 4-3, Table 9, two lines = tested twice, 8 days apart

For C[C@H](NC(=O)[C@H](CCCNC(=N)N)NC(=O)CNC(=O)[C@@H]1CCCN1C(=O)CN)C(=O)N[C@@H](Cc1ccccc1)C(=O)NCCCCC(=O)O [SPC3 monomer valeric acid, GPGRAF-NHCH2CH2CH2CH2COOH] (H-GPGRAF[Ava]-OH; N-terminus assumed), the “syncitia formed, Day 4” value (HIV-1 NDK; 0.005 μM) was “−”, the “syncitia formed, Day 5” value (HIV-1 NDK; 0.005 μM) was “+” and the “syncitia formed, Day 6” value (HIV-1 NDK; 0.005 μM) was “++”. The “syncitia formed, Day 7” value (HIV-1 NDK; 0.005 μM) was “++/T”, the “P 24” value (HIV-1 NDK; 0.005 μM) was 23810 pg/mL and the “syncitia formed, Day 4” value (HIV-1 NDK; 0.01 μM) was “−”. The “syncitia formed, Day 5” value (HIV-1 NDK; 0.01 μM) was “+”, the “syncitia formed, Day 6” value (HIV-1 NDK; 0.01 μM) was “++” and the “syncitia formed, Day 7” value (HIV-1 NDK; 0.01 μM) was “++/T”. The “P 24” value (HIV-1 NDK; 0.01 μM) was 21810 pg/mL, the “syncitia formed, Day 4” value (HIV-1 NDK; 0.05 μM) was “−” and the “syncitia formed, Day 5” value (HIV-1 NDK; 0.05 μM) was “+”. For the same compound, the “syncitia formed, Day 6” value (HIV-1 NDK; 0.05 μM) was “++”, the “syncitia formed, Day 7” value (HIV-1 NDK; 0.05 μM) was “++” and the “P 24” value (HIV-1 NDK; 0.05 μM) was 23810 pg/mL and 21810 pg/mL. The “syncitia formed, Day 4” value (HIV-1 NDK; 0.1 μM) was “−”, the “syncitia formed, Day 5” value (HIV-1 NDK; 0.1 μM) was “+” and the “syncitia formed, Day 6” value (HIV-1 NDK; 0.1 μM) was “++”. The “syncitia formed, Day 7” value (HIV-1 NDK; 0.1 μM) was “++”, the “P 24” value (HIV-1 NDK; 0.1 μM) was 11810 pg/mL and 15307 pg/mL and the “syncitia formed, Day 4” value (HIV-1 NDK; 0.5 μM) was “−”. The “syncitia formed, Day 5” value (HIV-1 NDK; 0.5 μM) was “−”, the “syncitia formed, Day 6” value (HIV-1 NDK; 0.5 μM) was “+” and the “syncitia formed, Day 7” value (HIV-1 NDK; 0.5 μM) was “++”. For the same compound, the “P 24” value (HIV-1 NDK; 0.5 μM) was 11840 pg/mL and 12240 pg/mL, the “syncitia formed, Day 4” value (HIV-1 NDK; 1 μM) was “−” and the “syncitia formed, Day 5” value (HIV-1 NDK; 1 μM) was “−”. The “syncitia formed, Day 6” value (HIV-1 NDK; 1 μM) was “−”, the “syncitia formed, Day 7” value (HIV-1 NDK; 1 μM) was “(+)” and the “syncitia formed, Day 4” value (HIV-1 NDK; 5 μM) was “−”. The “syncitia formed, Day 5” value (HIV-1 NDK; 5 μM) was “−”, the “syncitia formed, Day 6” value (HIV-1 NDK; 5 μM) was “−” and the “syncitia formed, Day 7” value (HIV-1 NDK; 5 μM) was “−”. The IC50 (HIV-1 NDK; HIV 1 NDK, Table 10) was 200 nM, the IC100 (HIV-1 NDK; HIV 1 NDK, Table 10) was 5 µM and the “Day 7 syncitia formed” value (HIV-1 NL 4-3 [1]; 0.005 μM) was “++/T”. The “Day 7 syncitia formed” value (HIV-1 NL 4-3 [1]; 0.01 μM) was “++/T”, the IC50 (HIV-1 NL 4-3 [1]; C8166 cells, HIV-1 subtype B NL 4-3, Table 3) was 20 nM and the IC50 (HIV-1 NL 4-3 [1]; [3]) was 50 nM. For the same compound, the IC100 (HIV-1 NL 4-3 [1]; [3]) was 5 µM, the “P 24” value (HIV-1 NL 4-3 [1]; 0.005 μM) was 23810 pg/mL and the “P 24” value (HIV-1 NL 4-3 [1]; 0.01 μM) was 21810 pg/mL. For the same compound, the “P 24” value (HIV-1 NL 4-3 [1]; 0.5 μM) was 1840 pg/mL and 2830 pg/mL, the “P 24” value (HIV-1 NL 4-3 [1]; 1 μM) was 325 pg/mL and 445 pg/mL and the “P 24” value (HIV-1 NL 4-3 [1]; 5 μM) was 3 pg/mL. The “Day 4 syncitia formed” value (HIV-1 NL 4-3 [2]; 0.005 μM) was “−”, the “Day 5 syncitia formed” value (HIV-1 NL 4-3 [2]; 0.005 μM) was “+” and the “Day 6 syncitia formed” value (HIV-1 NL 4-3 [2]; 0.005 μM) was “++”. The “Day 4 syncitia formed” value (HIV-1 NL 4-3 [2]; 0.01 μM) was “−”, the “Day 5 syncitia formed” value (HIV-1 NL 4-3 [2]; 0.01 μM) was “+” and the “Day 6 syncitia formed” value (HIV-1 NL 4-3 [2]; 0.01 μM) was “++”. For the same compound, the “Day 4 syncitia formed” value (HIV-1 NL 4-3 [2]; 0.05 μM) was “−”, the “Day 5 syncitia formed” value (HIV-1 NL 4-3 [2]; 0.05 μM) was “+” and the “Day 6 syncitia formed” value (HIV-1 NL 4-3 [2]; 0.05 μM) was “++”. The “Day 7 syncitia formed” value (HIV-1 NL 4-3 [2]; 0.05 μM) was “++”, the “Day 4 syncitia formed” value (HIV-1 NL 4-3 [2]; 0.1 μM) was “−” and the “Day 5 syncitia formed” value (HIV-1 NL 4-3 [2]; 0.1 μM) was “(+)”. For the same compound, the “Day 6 syncitia formed” value (HIV-1 NL 4-3 [2]; 0.1 μM) was “+ and ++”, the “Day 7 syncitia formed” value (HIV-1 NL 4-3 [2]; 0.1 μM) was “++” and the “Day 4 syncitia formed” value (HIV-1 NL 4-3 [2]; 0.5 μM) was “−”. For the same compound, the “Day 5 syncitia formed” value (HIV-1 NL 4-3 [2]; 0.5 μM) was “−”, the “Day 6 syncitia formed” value (HIV-1 NL 4-3 [2]; 0.5 μM) was “(+)” and the “Day 7 syncitia formed” value (HIV-1 NL 4-3 [2]; 0.5 μM) was “+”. The “Day 4 syncitia formed” value (HIV-1 NL 4-3 [2]; 1 μM) was “−”, the “Day 5 syncitia formed” value (HIV-1 NL 4-3 [2]; 1 μM) was “−” and the “Day 6 syncitia formed” value (HIV-1 NL 4-3 [2]; 1 μM) was “−”. For the same compound, the “Day 7 syncitia formed” value (HIV-1 NL 4-3 [2]; 1 μM) was “(+)”, the “Day 4 syncitia formed” value (HIV-1 NL 4-3 [2]; 5 μM) was “−” and the “Day 5 syncitia formed” value (HIV-1 NL 4-3 [2]; 5 μM) was “−”. For the same compound, the “Day 6 syncitia formed” value (HIV-1 NL 4-3 [2]; 5 μM) was “−” and the “Day 7 syncitia formed” value (HIV-1 NL 4-3 [2]; 5 μM) was “−”.

Reference: patent US20060229433A1, “Modified antiviral peptides with increased activity and cell membrane affinity” (priority 2003, published 2006)
